In ChEMBL document CHEMBL5303304, “EUbOPEN Chemogenomics Library - IncuCyte” (2023):

How the values were obtained:
[1] = tested on: HEK-293T; assay: Incucyte cell viability with HEK293T; assay type: toxicity, cell-based; conditions: human, 10 µM, compound concentration 10 uM
[2] = tested on: Fibroblast; assay: Incucyte cell viability with human fibroblast; assay type: toxicity, cell-based; conditions: 10 µM, compound concentration 10 uM
Also: unitless GR value; below 1 slowed growth and below 0 cell loss.

SMILES: Cc1ccc(NC(=O)c2ccc(CN3CC[C@H](N(C)C)C3)c(C(F)(F)F)c2)cc1Nc1nccc(-c2cncnc2)n1 [BAFETINIB]
- Growth Rate ([1]; 6 h, replicate number 1): 0.57
- Growth Rate ([1]; 12 h, replicate number 1): 0.67
- Growth Rate ([1]; 12 h, replicate number 2): 0.68
- Growth Rate ([1]; 18 h, replicate number 1): 0.96
- Growth Rate ([1]; 18 h, replicate number 2): 0.99
- Growth Rate ([1]; 24 h, replicate number 1): 0.97
- Growth Rate ([2]; 0 h, replicate number 1): -1
- Growth Rate ([2]; 0 h, replicate number 2): 0.2
- Growth Rate ([2]; 6 h, replicate number 1): -0.23
- Growth Rate ([2]; 6 h, replicate number 2): -0.55
- Growth Rate ([2]; 12 h, replicate number 1): 0.05
- Growth Rate ([2]; 12 h, replicate number 2): 0.02
- Growth Rate ([2]; 18 h, replicate number 1): 0.01
- Growth Rate ([2]; 18 h, replicate number 2): 0.39
- Growth Rate ([2]; 24 h, replicate number 1): 0.14
- Growth Rate ([2]; 24 h, replicate number 2): 0.54

SMILES: N=C(N)NCCC[C@H](NC(=O)CC1(CC(=O)N2CCN(C(c3ccccc3)c3ccccc3)CC2)CCCC1)C(=O)NCc1ccccc1.O=C(O)C(F)(F)F.O=C(O)C(F)(F)F
- Growth Rate ([1]; 0 h, replicate number 1): 0.71
- Growth Rate ([1]; 6 h, replicate number 1): 0.7
- Growth Rate ([1]; 6 h, replicate number 2): 0.95
- Growth Rate ([1]; 12 h, replicate number 1): 0.89
- Growth Rate ([2]; 0 h, replicate number 2): -0.98
- Growth Rate ([2]; 6 h, replicate number 1): 0.88
- Growth Rate ([2]; 12 h, replicate number 1): 0.74
- Growth Rate ([2]; 18 h, replicate number 1): 0.47
- Growth Rate ([2]; 18 h, replicate number 2): 0.92
- Growth Rate ([2]; 24 h, replicate number 1): 0.8
- Growth Rate ([2]; 24 h, replicate number 2): 0.64

SMILES: CN[C@@H](C)C(=O)N[C@H](C(=O)N1CCC[C@H]1C(=O)Nc1sc(-c2ncco2)nc1-c1ccccc1)C1CCCCC1 [GDC-0917]
- Growth Rate ([1]; 0 h, replicate number 1): 0.71
- Growth Rate ([1]; 6 h, replicate number 1): 0.6
- Growth Rate ([1]; 6 h, replicate number 2): 0.98
- Growth Rate ([1]; 12 h, replicate number 1): 0.93
- Growth Rate ([1]; 18 h, replicate number 1): 0.86
- Growth Rate ([1]; 24 h, replicate number 1): 0.92
- Growth Rate ([1]; 24 h, replicate number 2): 0.99
- Growth Rate ([2]; 0 h, replicate number 1): -1
- Growth Rate ([2]; 6 h, replicate number 2): 0.6

SMILES: CN(C)C(=O)Cn1cc(-c2nc(C3(c4ccc(-c5cnc(N)nc5)cc4)CC3)no2)cn1 [BI 0153]
- Growth Rate ([1]; 0 h, replicate number 1): 0.71
- Growth Rate ([1]; 6 h, replicate number 1): 0.25
- Growth Rate ([1]; 18 h, replicate number 1): 0.95
- Growth Rate ([1]; 24 h, replicate number 1): 0.92
- Growth Rate ([2]; 0 h, replicate number 1): -1
- Growth Rate ([2]; 0 h, replicate number 2): -0.89
- Growth Rate ([2]; 6 h, replicate number 1): 0.57
- Growth Rate ([2]; 6 h, replicate number 2): -0.35
- Growth Rate ([2]; 12 h, replicate number 2): 0.4
- Growth Rate ([2]; 18 h, replicate number 1): 0.91
- Growth Rate ([2]; 18 h, replicate number 2): 0.6
- Growth Rate ([2]; 24 h, replicate number 1): 0.73
- Growth Rate ([2]; 24 h, replicate number 2): 0.96

SMILES: O=C(Nc1ccc(C(O)(C(F)(F)F)C(F)(F)F)cc1)c1ccc(C(F)(F)F)cc1
- Growth Rate ([1]; 0 h, replicate number 2): -0.33
- Growth Rate ([1]; 6 h, replicate number 1): -0.31
- Growth Rate ([1]; 6 h, replicate number 2): 0.09
- Growth Rate ([1]; 12 h, replicate number 1): -0.13
- Growth Rate ([1]; 12 h, replicate number 2): 0.2
- Growth Rate ([1]; 18 h, replicate number 1): 0.04
- Growth Rate ([1]; 18 h, replicate number 2): 0.18
- Growth Rate ([1]; 24 h, replicate number 1): 0.05
- Growth Rate ([1]; 24 h, replicate number 2): 0.15
- Growth Rate ([2]; 6 h, replicate number 1): 0.78
- Growth Rate ([2]; 6 h, replicate number 2): -0.08
- Growth Rate ([2]; 12 h, replicate number 1): 0.64
- Growth Rate ([2]; 12 h, replicate number 2): 0.22
- Growth Rate ([2]; 18 h, replicate number 1): 0.52
- Growth Rate ([2]; 18 h, replicate number 2): 0.11
- Growth Rate ([2]; 24 h, replicate number 1): 0.47
- Growth Rate ([2]; 24 h, replicate number 2): 0.07

SMILES: c1ccc(C(OC2CCN(CCCc3nnn[nH]3)CC2)c2ccccc2)cc1
- Growth Rate ([1]; 6 h, replicate number 1): 0.35
- Growth Rate ([1]; 6 h, replicate number 2): 0.46
- Growth Rate ([1]; 12 h, replicate number 1): 0.7
- Growth Rate ([1]; 12 h, replicate number 2): 0.67
- Growth Rate ([1]; 18 h, replicate number 1): 0.57
- Growth Rate ([1]; 18 h, replicate number 2): 0.85
- Growth Rate ([1]; 24 h, replicate number 1): 0.65
- Growth Rate ([1]; 24 h, replicate number 2): 0.75
- Growth Rate ([2]; 6 h, replicate number 2): -0.26
- Growth Rate ([2]; 18 h, replicate number 2): 0.75

SMILES: COc1cc2nc([C@@H]3CCCS(=O)(=O)C3)n(C)c2cc1NC(=O)c1cccc(C(C)(F)F)n1
- Growth Rate ([1]; 0 h, replicate number 1): -0.79
- Growth Rate ([1]; 0 h, replicate number 2): -0.88
- Growth Rate ([2]; 0 h, replicate number 2): -0.81

SMILES: COc1cc(-c2cncc(-c3ccc(N4CCN(C(C)C)CC4)cc3)c2C)cc(F)c1C(N)=O
- Growth Rate ([1]; 0 h, replicate number 1): -0.67
- Growth Rate ([2]; 0 h, replicate number 2): -0.84

SMILES: C[C@@H](COCCC(=O)N1CCN(c2ncc(C(F)(F)F)cn2)CC1)Nc1cn[nH]c(=O)c1C(F)(F)F [ATAMPARIB]
- Growth Rate ([1]; 0 h, replicate number 1): 0.95
- Growth Rate ([1]; 0 h, replicate number 2): 0.81
- Growth Rate ([1]; 6 h, replicate number 2): 0.59
- Growth Rate ([1]; 12 h, replicate number 2): 0.8
- Growth Rate ([1]; 18 h, replicate number 2): 0.9
- Growth Rate ([1]; 24 h, replicate number 2): 0.75
- Growth Rate ([2]; 6 h, replicate number 1): 0.88
- Growth Rate ([2]; 6 h, replicate number 2): 0.74
- Growth Rate ([2]; 12 h, replicate number 1): 0.3
- Growth Rate ([2]; 12 h, replicate number 2): 0.15
- Growth Rate ([2]; 18 h, replicate number 1): 0.22
- Growth Rate ([2]; 18 h, replicate number 2): 0.13
- Growth Rate ([2]; 24 h, replicate number 1): 0.39
- Growth Rate ([2]; 24 h, replicate number 2): 0.15
